Measured values reported in US8916599B2, “1H-benz imidazole-5-carboxamides as anti-inflammatory agents” (Orexo AB, priority 2008, dated 2014).

Target: T1, recombinant human mPGES-1 (Homo sapiens, UniProt O14684)
T1 construct: made in house; host or cells: Rosetta E. coli (microsomal/membrane fraction)
T1 sequence (O14684 1-152): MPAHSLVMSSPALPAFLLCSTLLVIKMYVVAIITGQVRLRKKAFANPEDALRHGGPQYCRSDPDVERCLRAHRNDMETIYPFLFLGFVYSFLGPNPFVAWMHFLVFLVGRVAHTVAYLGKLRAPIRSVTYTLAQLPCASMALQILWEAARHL
Assay: mPGES-1 inhibition test (microsomes, PGH2 substrate, HTRF detection of PGE2)
Format: biochemical
Details: for inhibition at 10 µM: inhibition of mPGES-1 at 10 μM
How it was run: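 E. coli microsomal enzyme, 0.1 M KPi pH 7.4 + 2.5 mM GSH; cpd (DMSO) 25 min RT; PGH2 1 min; acidic FeCl2 stop. Dilute 750-fold, HTRF (d2/Eu-cryptate anti-PGE2, overnight 4 °C), 665/620 ratio vs PGE2 standard curve.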

`Cn1c(Nc2c(F)cccc2Cl)nc2cc(C(=O)N[C@H]3CC[C@H](C(F)F)CC3)c(F)cc21` [Example 476, 2-(2-Chloro-6-fluorophenylamino)-N-((1r,4r)-4-(difluoromethyl)cyclohexyl)-6-fluoro-1-methyl-1H-benzimidazole-5-carboxamide] showed an inhibition at 10 µM of 100%.
`O=C(Nc1cc(Cl)ccn1)c1ccc2[nH]c(Nc3c(Cl)cccc3Cl)nc2c1` [Example 75, 2-(2,6-Dichloro-phenylamino)-1H-benzimidazole-5-carboxylic acid (4-chloro-pyridin-2-yl)-amide] showed an inhibition at 10 µM of 95%.
For `Cn1c(Nc2c(Cl)cccc2Cl)nc2cc(C(=O)NC3CCC(C)(C)CC3)c(F)cc21` [Example 157, 2-(2,6-Dichloro-phenylamino)-6-fluoro-1-methyl-1H-benzimidazole-5-carboxylic acid (4,4-dimethyl-cyclohexyl)-amide], the inhibition at 10 µM was 100%.
`O=C(NC1Cc2ccccc2C1)c1cc2nc(Nc3c(Cl)cccc3Cl)[nH]c2cc1Cl` [Example 58, 2-(2,6-Dichloro-phenylamino)-6-chloro-1H-benzimidazol-5-carboxylic acid indan-2-yl-amide] gave an inhibition at 10 µM of 90%.
Compound `CC(C)(C)[C@H]1CC[C@H](NC(=O)c2cc3nc(Nc4c(Cl)cccc4Cl)[nH]c3cc2F)CC1` [Example 356, N-((1r,4r)-4-tert.-Butylcyclohexyl)-2-(2,6-dichlorophenylamino)-6-fluoro-1H-benzimidazole-5-carboxamide] has an inhibition at 10 µM of 100%.
`Cn1c(Nc2c(Cl)cccc2Cl)nc2cc(C(=O)NCc3ncccc3Cl)c(F)cc21` [Example 452, N-((3-Chloropyridin-2-yl)methyl)-2-(2,6-dichlorophenylamino)-6-fluoro-1-methyl-1H-benzimidazole-5-carboxamide] showed an inhibition at 10 µM of 93%.
For `O=C(NCCc1cccnc1)c1ccc2[nH]c(Nc3c(Cl)cccc3Cl)nc2c1` [Example 232, 2-(2,6-Dichloro-phenylamino)-1H-benzimidazole-5-carboxylic acid (2-pyridin-3-yl-ethyl)-amide], the inhibition at 10 µM was 91%.
`O=C(Nc1ncccc1Cl)c1ccc2[nH]c(Nc3c(Cl)cccc3Cl)nc2c1` [Example 186, 2-(2,6-Dichloro-phenylamino)-1H-benzimidazole-5-carboxylic acid (3-chloro-pyridin-2-yl)-amide] was tested, and the inhibition at 10 µM was 91%.
In the case of `CCc1ccc(C)nc1NC(=O)c1ccc2c(c1)nc(Nc1c(Cl)cccc1Cl)n2C` [Example 545, 2-(2,6-Dichlorophenylamino)-N-(3-ethyl-6-methylpyridin-2-yl)-1-methyl-1H-benzimidazole-5-carboxamide], the inhibition at 10 µM is reported as 89%.
In the case of `CC1CCC(NC(=O)c2ccc3c(c2)nc(Nc2c(Cl)cccc2Cl)n3C)CC1` (centres unmarked) [Example 239, 2-(2,6-Dichloro-phenylamino)-1-methyl-1H-benzimidazole-5-carboxylic acid (4-methyl-cyclohexyl)-amide], the inhibition at 10 µM is reported as 96%.
For `CCOc1cc2c(cc1C(=O)NC1CCC(C)(C)CC1)nc(Nc1c(Cl)ccc(Cl)c1F)n2C` [Example 607, 2-(3,6-Dichloro-2-fluoro-phenylamino)-6-ethoxy-N-(4,4-dimethyl-cyclohex-1-yl)-1-methyl-1H-benzimidazole-5-carboxamide], the inhibition at 10 µM was 97%.
Work on `O=C(NCc1cc(C(F)(F)F)ccn1)c1ccc2[nH]c(Nc3c(Cl)cccc3Cl)nc2c1` [Example 221, 2-(2,6-Dichloro-phenylamino)-1H-benzimidazole-5-carboxylic acid (4-trifluoromethyl-pyridin-2-ylmethyl)-amide] yielded an inhibition at 10 µM of 87%.
In the case of `Cn1c(Nc2ccc(C(F)(F)F)cc2Cl)nc2cc(C(=O)Nc3ccc(Br)cc3)ccc21` [Example 556, N-(4-Bromophenyl)-2-(2-chloro-4-trifluoromethyl-phenylamino)-1-methyl-1H-benzimidazole-5-carboxamide], the inhibition at 10 µM is reported as 74%.
Compound `Cc1cc(NC(=O)c2ccc3nc(Nc4c(Cl)cccc4Cl)[nH]c3c2)ccn1` [Example 193, 2-(2,6-Dichloro-phenylamino)-3H-benzimidazole-5-carboxylic acid (2-methyl-pyridin-4-yl)-amide] has an inhibition at 10 µM of 99%.
Compound `Cn1c(Nc2cc(C(=O)O)ccc2Cl)nc2cc(C(=O)Nc3ccc(Br)cc3)ccc21` [Example 573, 3-(5-(4-Bromophenylcarbamoyl)-1-methyl-1H-benzimidazol-2-yl-amino)-4-chlorobenzoic acid] has an inhibition at 10 µM of 60%.
With `Cn1c(Nc2c(Cl)cccc2Cl)nc2cc(C(=O)NCc3ncccc3C3CC3)c(F)cc21` [Example 422, N-((3-Cyclopropylpyridin-2-yl)methyl)-2-(2,6-dichlorophenylamino)-6-fluoro-1-methyl-1H-benzimidazole-5-carboxamide] the inhibition at 10 µM was 100%.
In the case of `COc1cc2nc(Nc3c(Cl)cccc3Cl)[nH]c2cc1C(=O)NCc1ccccc1C(F)(F)F` [Example 200], the inhibition at 10 µM is reported as 98%.
`Cn1c(Nc2c(Cl)cccc2Cl)nc2cc(C(=O)Nc3cccc(S(C)(=O)=O)c3)ccc21` [Example 248, 2-(2,6-Dichloro-phenylamino)-1-methyl-1H-benzimidazole-5-carboxylic acid (3-methanesulfonyl-phenyl)-amide] was tested, and the inhibition at 10 µM was 73%.
`Cc1cnc(NC(=O)c2cc3nc(Nc4c(Cl)cccc4Cl)n(C)c3cc2F)cc1Cl` [Example 372, N-(4-Chloro-5-methylpyridin-2yl)-2-(2,6-dichlorophenylamino)-6-fluoro-1-methyl-1H-benzimidazole-5-carboxamide] showed an inhibition at 10 µM of 98%.
`Cn1c(Nc2ccc(Cl)cc2Cl)nc2cc(C(=O)Nc3ccc(Br)cc3)ccc21` [Example 519, N-(4-Bromophenyl)-2-(2,4-dichlorophenylamino)-1-methyl-1H-benzimidazole-5-carboxamide] was tested, and the inhibition at 10 µM was 95%.
`O=C(Nc1cc(Cl)ccn1)c1cc(Br)c2[nH]c(Nc3c(Cl)cccc3Cl)nc2c1` [Example 500, 7-Bromo-N-(4-chloropyridin-2-yl)-2-(2,6-dichlorophenylamino)-1H-benzimidazole-5-carboxamide] showed an inhibition at 10 µM of 100%.
Work on `Cc1ccc(Cl)c(Nc2nc3cc(C(=O)N[C@H]4CC[C@H](C(F)(F)F)CC4)c(F)cc3n2C)c1F` [Example 629, 2-(6-Chloro-2-fluoro-3-methyl-phenylamino)-6-fluoro-N-(trans-4-trifluoromethyl-cyclohex-1-yl)-1-methyl-1H-benzimidazole-5-carboxamide] yielded an inhibition at 1 µM (inhibition of mPGES-1 at 1 μM (marked in cell)) of 99%.
For `O=C(NC1CCc2ccccc2C1)c1ccc2nc(Nc3c(Cl)cccc3Cl)[nH]c2c1` (centres unmarked) [Example 146, 2-(2,6-Dichloro-phenylamino)-3H-benzimidazole-5-carboxylic acid (1,2,3,4-tetrahydro-naphthalen-2-yl)-amide], the inhibition at 10 µM was 97%.
`O=C(NC1CCC(F)(F)CC1)c1cc2[nH]c(Nc3c(Cl)cccc3Cl)nc2cc1F` [Example 149, 2-(2,6-Dichloro-phenylamino)-6-fluoro-3H-benzimidazole-5-carboxylic acid (4,4-difluoro-cyclohexyl)-amide] showed an inhibition at 10 µM of 100%.
In the case of `O=C(Nc1ccc(Cl)c(Cl)c1)c1ccc2[nH]c(Nc3c(Cl)cccc3Cl)nc2c1` [Example 111, 2-(2,6-Dichloro-phenylamino)-1H-benzimidazole-5-carboxylic acid (3,4-dichloro-phenyl)-amide], the inhibition at 10 µM is reported as 100%.
`Cn1c(NC(=O)c2ccc3[nH]c(Nc4c(Cl)cccc4Cl)nc3c2)nc2ccccc21` [Example 81, 2-(2,6-Dichloro-phenylamino)-1H-benzimidazole-5-carboxylic acid (1-methyl-benzimidazol-2-yl)-amide] was tested, and the inhibition at 10 µM was 84%.
